Tests used:
[1] = Test F: in vitro (liver microsome) stability, rat liver microsomes; assay type: in vitro ADME, Sprague-Dawley rats; conditions: liver microsomes from rats, NADPH, 37° C.
Method: (§1) Determination of In Vitro (Liver Microsome) Stability
(§2) Liver microsomes are prepared from Sprague-Dawley rats and human liver samples according to internal SOPs. The compounds are incubated at 37° C. at a total microsome protein concentration of 0.5 mg/mL in a 0.1 mol/L potassium phosphate buffer at pH 7.4, in the presence of the cofactor, NADPH (1.0 mmol/L). The initial concentration of compound is 1.0 μmol/L. Samples are taken for analysis at 5 time points, 0, 7, 15, 20 and 30 minutes after the start of the incubation. The enzymatic activity in the collected sample is immediately stopped by adding an equal volume of acetonitrile containing 0.8% formic acid. The concentration of compound remaining in each of the collected samples is determined by means of LC-MS/MS. The elimination rate constant (k) of the thrombin inhibitor is calculated as the slope of the plot of ln[Thrombin inhibitor] against incubation time (minutes). The elimination rate constant is then used to calculate the half-life (T1/2) of the thrombin inhibitor, which is subsequently used to calculate the intrinsic clearance (CLint) of the thrombin inhibitor in liver microsomes as: […]

[2] = Test F: in vitro (liver microsome) stability, human liver microsomes; assay type: in vitro ADME; conditions: liver microsomes from humans, NADPH, 37° C.
Method: as §1, §2

SMILES | conversion to the corresponding active inhibitor (title compound of Example 1) [1] | conversion to the corresponding active inhibitor (title compound of Example 1) [2]
CC(=O)OCc1nc(N)cc(C)c1CNC(=O)CC1=C(C)CCN(NCC(F)(F)c2ccccn2)C1=O [Example 2, (6-Amino-3-{[({1-[(2,2-difluoro-2-pyridin-2-ylethyl)amino]-4-methyl-2-oxo-1,2,5,6-tetrahydropyridin-3-yl}acetyl)amino]methyl}-4-methylpyridin-2-yl)-methyl acetate] | converted to the corresponding active inhibitor | converted to the corresponding active inhibitor
CC1=C(CC(=O)NCc2c(C)cc(N)nc2COC(=O)c2ccccc2)C(=O)N(NCC(F)(F)c2ccccn2)CC1 [Example 3, (6-Amino-3-{[({1-[(2,2-difluoro-2-pyridin-2-ylethyl)amino]-4-methyl-2-oxo-1,2,5,6-tetrahydropyridin-3-yl}acetyl)amino]methyl}-4-methylpyridin-2-yl)-methyl benzoate] | converted to the corresponding active inhibitor | converted to the corresponding active inhibitor
